Data as given in article PMC7570671, “Synthesis and Biological Evaluation of Novel Benodanil-Heterocyclic Carboxamide Hybrids as a Potential Succinate Dehydrogenase Inhibitors” (Molecules, 2020).

Target: T1, succinate dehydrogenase (SDH) from mitochondria of R. solani (Rhizoctonia solani, UniProt A0A0K6FYZ3+A0A0K6G4J6+A0A0K6G6J3)
T1 construct: gene sdhB; native complex II in isolated mitochondria, not purified; with Succinate dehydrogenase [ubiquinone] flavoprotein subunit, mitochondrial
Test: succinate:ubiquinone/DCPIP reductase inhibition in isolated mitochondria, absorbance at […] nm
Type: biochemical

T1 sequence (A0A0K6FYZ3 29-278): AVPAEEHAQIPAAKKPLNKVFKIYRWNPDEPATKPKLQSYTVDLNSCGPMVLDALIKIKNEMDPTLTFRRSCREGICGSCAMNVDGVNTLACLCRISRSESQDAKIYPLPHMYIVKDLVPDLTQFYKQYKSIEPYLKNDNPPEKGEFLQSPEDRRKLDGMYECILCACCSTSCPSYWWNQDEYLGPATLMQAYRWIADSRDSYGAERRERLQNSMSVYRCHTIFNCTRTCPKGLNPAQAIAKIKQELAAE
T1 sequence (A0A0K6G4J6 37-154): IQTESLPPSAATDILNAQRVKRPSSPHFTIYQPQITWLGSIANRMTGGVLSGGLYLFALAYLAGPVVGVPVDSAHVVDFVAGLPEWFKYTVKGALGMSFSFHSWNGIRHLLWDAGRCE
T1 sequence (A0A0K6G6J3 32-176): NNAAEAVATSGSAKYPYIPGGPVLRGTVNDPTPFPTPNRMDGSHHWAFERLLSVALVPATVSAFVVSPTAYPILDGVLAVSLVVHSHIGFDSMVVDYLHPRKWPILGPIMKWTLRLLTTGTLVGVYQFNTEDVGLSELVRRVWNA
T1 sequence (A0A0K6G1V0 48-643 partner): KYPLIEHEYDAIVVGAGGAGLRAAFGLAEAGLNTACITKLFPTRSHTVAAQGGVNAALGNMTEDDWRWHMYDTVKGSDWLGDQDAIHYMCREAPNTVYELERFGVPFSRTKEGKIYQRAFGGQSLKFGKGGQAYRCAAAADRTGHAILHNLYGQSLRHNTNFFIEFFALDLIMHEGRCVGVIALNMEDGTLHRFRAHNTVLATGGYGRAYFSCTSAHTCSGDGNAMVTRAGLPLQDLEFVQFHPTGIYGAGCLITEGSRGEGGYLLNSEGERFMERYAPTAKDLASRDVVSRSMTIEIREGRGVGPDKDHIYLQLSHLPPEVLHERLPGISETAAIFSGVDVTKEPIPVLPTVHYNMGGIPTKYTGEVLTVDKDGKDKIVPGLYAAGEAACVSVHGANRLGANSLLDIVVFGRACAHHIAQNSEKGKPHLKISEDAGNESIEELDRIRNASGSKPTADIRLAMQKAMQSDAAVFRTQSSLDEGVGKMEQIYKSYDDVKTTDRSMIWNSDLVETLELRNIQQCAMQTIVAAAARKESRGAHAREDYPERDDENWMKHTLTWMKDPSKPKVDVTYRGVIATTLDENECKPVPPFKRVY

| Structure (SMILES) | IC50 [µM] |
| --- | --- |
| O=C(Nc1ccccc1)c1ccccc1I [benodanil] | 192 |
| CC(C)c1cccc(NC(=O)c2ccccc2NC(=O)c2cn(C)nc2C(F)F)c1 [compound 17] | 127 |
| Cn1cc(C(=O)Nc2ccccc2C(=O)Nc2cccc(C(F)(F)F)c2)c(C(F)F)n1 [compound 18] | 130 |
